These results are taken from patent US6107313A, “Dopamine receptor antagonists” (CombiChem, Inc., priority 1998, dated 2000).

Assay [1] has as its target T1, Dopamine, D2s (Human Recombinant) (Homo sapiens, UniProt P14416).
T1 construct: expressed in transfected cells; host or cells: A9L cells (membranes)
The experiment in a line: dopamine D2 receptor binding assay, [3H]spiperone, human recombinant (A9L cells). As to conditions: 1 h, N = 2, read-out: % Specific Binding; for activity at 10 µM: concentration 1.0E-5, average; for activity at 1 µM: concentration 1.0E-6, average; for activity at 0.1 µM: concentration 1.0E-7, average; for activity at 0.01 µM: concentration 1.0E-8, average; for activity at 0.001 µM: concentration 1.0E-9, average; for activity at 3 µM: concentration 3.0E-6, average; for activity at 0.3 µM: concentration 3.0E-7, average; for activity at 0.03 µM: concentration 3.0E-8, average; for activity at 0.003 µM: concentration 3.0E-9, average; for activity at 0.0003 µM: concentration 3.0E-10, average. As for the experimental part:
(§1) Following incubation, the membranes were rapidly filtered under vacuum through GF/B glass fiber filters (Packard). The filters were then washed several times with an ice-cold buffer using a Packard cell harvester.
(§2) Bound radioactivity was measured with a scintillation counter (Topcount, Packard) using a liquid scintillation cocktail (Microscint 0, Packard).
(§3) The compounds were tested in each assay at ten concentrations in duplicate to obtain competition curves.
(§4) In each experiment, the respective reference compound was simultaneously tested at eight concentrations in duplicate to obtain competition curves in order to validate this experiment.
(§5) The specific radioligand binding to the receptors is defined as the difference between total binding and nonspecific binding determined in the presence of an excess of unlabelled ligand (see section 2.1).
(§6) Results are expressed as a percent of control specific binding obtained in the presence of the test compounds.
(§7) These parameters were obtained by Hill equation curve fitting. The inhibition constants (Ki) were calculated from the Cheng Prusoff equation (Ki =IC50 /(1+L/KD), where L=concentration of radioligand in the assay, and KD=affinity of radioligand for the receptor).
(§8) Reactions were carried out in 50 mM TRIS-HCl (pH 7.4) containing 120 mM NaCl, 5 mM KCl, 5 mM MgCl2, 1mM EDTA for 60 minutes at 25 ° C. The reaction was terminated by rapid vacuum filtration onto glass fiber filters. Radioactivity trapped onto the filters was determined and compared to control values in order to ascertain any interactions of test compound(s) with the cloned dopamine D2 short binding site.

For assay [2], the target named is T2, Dopamine, D4.4 (Human Recombinant) (Homo sapiens, UniProt P21917).
T2 construct: expressed in transfected cells; host or cells: CHO cells (membranes)
T2 sequence (P21917 1-419): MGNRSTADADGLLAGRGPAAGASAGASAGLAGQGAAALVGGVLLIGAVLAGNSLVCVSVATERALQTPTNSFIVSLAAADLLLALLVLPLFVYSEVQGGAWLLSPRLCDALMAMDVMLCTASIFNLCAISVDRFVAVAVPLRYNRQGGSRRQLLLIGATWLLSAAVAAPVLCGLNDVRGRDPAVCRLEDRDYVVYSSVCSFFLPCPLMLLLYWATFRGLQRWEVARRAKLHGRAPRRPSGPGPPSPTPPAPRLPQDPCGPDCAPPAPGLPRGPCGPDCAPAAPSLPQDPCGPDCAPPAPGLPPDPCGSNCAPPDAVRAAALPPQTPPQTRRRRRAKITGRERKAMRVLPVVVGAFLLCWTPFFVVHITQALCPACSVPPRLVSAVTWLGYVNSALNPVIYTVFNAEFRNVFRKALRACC
The experiment in a line: dopamine D4.4 receptor binding assay, [3H]spiperone, human recombinant (CHO cells). The conditions noted are these: 1 h, N = 2, read-out: % Specific Binding; for activity at 10 µM: concentration 1.0E-5, average; for activity at 1 µM: concentration 1.0E-6, average; for activity at 0.1 µM: concentration 1.0E-7, average; for activity at 0.01 µM: concentration 1.0E-8, average; for activity at 0.001 µM: concentration 1.0E-9, average; for activity at 3 µM: concentration 3.0E-6, average; for activity at 0.3 µM: concentration 3.0E-7, average; for activity at 0.03 µM: concentration 3.0E-8, average; for activity at 0.003 µM: concentration 3.0E-9, average; for activity at 0.0003 µM: concentration 3.0E-10, average. The method, then: [The source words this procedure for another target and reports this target under the same test.] as §1, §2, §3, §4, §5, §6, §7, §8

T1 sequence (P14416 1-414 isoform P14416-2): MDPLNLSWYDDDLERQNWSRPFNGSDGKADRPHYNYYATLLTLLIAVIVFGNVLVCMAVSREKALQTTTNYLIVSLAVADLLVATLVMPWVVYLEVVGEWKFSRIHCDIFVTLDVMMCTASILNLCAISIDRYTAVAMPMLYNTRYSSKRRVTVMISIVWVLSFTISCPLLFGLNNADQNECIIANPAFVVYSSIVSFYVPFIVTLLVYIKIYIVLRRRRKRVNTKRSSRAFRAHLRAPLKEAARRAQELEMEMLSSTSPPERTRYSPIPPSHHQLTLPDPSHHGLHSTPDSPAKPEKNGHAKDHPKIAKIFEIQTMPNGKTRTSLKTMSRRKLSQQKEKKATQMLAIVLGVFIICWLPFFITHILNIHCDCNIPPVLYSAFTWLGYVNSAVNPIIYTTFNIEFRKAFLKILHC

Consider `Cc1ccc(-c2noc(C3CCN(Cc4ccc(Cl)c(Cl)c4)CC3)n2)cc1` [Compound 5a, 4-(3-p-tolyl-1,2,4-oxadiazol-5-yl)-N-(3,4-dichlorobenzyl) piperidine], for which, in assay [1], the activity at 10 µM was 116%, the activity at 1 µM amounted to 102%, the activity at 0.1 µM was determined as 84.7% and the activity at 0.01 µM amounted to 89.7%. For the same compound, in assay [1], the activity at 0.001 µM came to 93.4%, the activity at 3 µM turned out to be 99.4%, the activity at 0.3 µM is 101% and the activity at 0.03 µM was 107%. Moreover, in assay [1], the activity at 0.003 µM turned out to be 90.8% and the activity at 0.0003 µM was 89.9%. Further, in assay [2], the activity at 10 µM came out at 3.57%, the activity at 1 µM came to 46.6%, the activity at 0.1 µM is 76.8% and the activity at 0.01 µM is 81%. In assay [2], the activity at 0.001 µM is 80.2%, the activity at 3 µM was determined as 16.4%, the activity at 0.3 µM turned out to be 80.4% and the activity at 0.03 µM stood at 76.3%. For the same compound, in assay [2], the activity at 0.003 µM came out at 84.4% and the activity at 0.0003 µM was 90.9%.
With `Clc1ccc(CN2CCC(c3nc(-c4cccs4)no3)CC2)cc1` [Compound 5b, 4-[3-(2-thienyl)-1,2,4-oxadiazol-5-yl]-N-(4-chlorobenzyl) piperidine], in assay [1], the activity at 10 µM was 24.6%, the activity at 1 µM worked out at 91.3%, the activity at 0.1 µM is 112% and the activity at 0.01 µM turned out to be 103%. For the same compound, in assay [1], the activity at 0.001 µM is 104%, the activity at 3 µM was found to be 61.9%, the activity at 0.3 µM is 116% and the activity at 0.03 µM worked out at 104%. Besides, in assay [1], the activity at 0.003 µM was determined as 97.3% and the activity at 0.0003 µM came out at 116%. Further, in assay [2], the activity at 10 µM was -3.8%, the activity at 1 µM came to 0.44%, the activity at 0.1 µM came out at 22.8% and the activity at 0.01 µM turned out to be 53.6%. Also, in assay [2], the activity at 0.001 µM is 76%, the activity at 3 µM was -0.19%, the activity at 0.3 µM came to 4.28% and the activity at 0.03 µM came out at 29.7%. Besides, in assay [2], the activity at 0.003 µM is 73.1% and the activity at 0.0003 µM is 82.3%.
For `Clc1cccc(CN2CCC(c3nc(-c4cccs4)no3)CC2)c1` [Compound 5c, 4-[3-(2-thienyl)-1,2,4-oxadiazol-5-yl]-N-(3-chlorobenzyl) piperidine], in assay [1], the activity at 10 µM was found to be 33%, the activity at 1 µM is 101%, the activity at 0.1 µM was determined as 87.7% and the activity at 0.01 µM was determined as 88.3%. Also, in assay [1], the activity at 0.001 µM is 94.8%, the activity at 3 µM was 102%, the activity at 0.3 µM came to 94.6% and the activity at 0.03 µM amounted to 84.9%. Further, in assay [1], the activity at 0.003 µM worked out at 108% and the activity at 0.0003 µM stood at 98.5%. For the same compound, in assay [2], the activity at 10 µM was -7.32%, the activity at 1 µM was found to be 1.74%, the activity at 0.1 µM amounted to 29.2% and the activity at 0.01 µM came to 81.9%. For the same compound, in assay [2], the activity at 0.001 µM turned out to be 107%, the activity at 3 µM was 4.6%, the activity at 0.3 µM was 4.79% and the activity at 0.03 µM amounted to 60%. Besides, in assay [2], the activity at 0.003 µM was 95.2% and the activity at 0.0003 µM stood at 109%.
Consider `COc1ccc(CN2CCC(c3nc(-c4ccccc4C)no3)CC2)cc1` [Compound 5d, 4-(3-o-tolyl-1,2,4-oxadiazol-5-yl)-N-(4-methoxybenzyl) piperidine], for which, in assay [1], the activity at 10 µM stood at 39.5%, the activity at 1 µM is 106%, the activity at 0.1 µM was 105% and the activity at 0.01 µM came to 100%. Moreover, in assay [1], the activity at 0.001 µM was determined as 104%, the activity at 3 µM came to 113%, the activity at 0.3 µM was determined as 117% and the activity at 0.03 µM worked out at 99.8%. Besides, in assay [1], the activity at 0.003 µM was found to be 105% and the activity at 0.0003 µM is 85.2%. Further, in assay [2], the activity at 10 µM was 2.15%, the activity at 1 µM was determined as 6.58%, the activity at 0.1 µM came out at 47.5% and the activity at 0.01 µM was found to be 92.1%. In addition, in assay [2], the activity at 0.001 µM is 102%, the activity at 3 µM turned out to be 12.2%, the activity at 0.3 µM was found to be 22.9% and the activity at 0.03 µM is 77.1%. In assay [2], the activity at 0.003 µM was found to be 96.4% and the activity at 0.0003 µM came to 101%.
